How the values were obtained:
A375 cells = experiment: Growth of cultured melanoma cells, hemocytometer counting; type: cell-based, human
From the text: (§1) A super-repressor form of human IκBα (S32, 36A) resistant to degradation and mutant IKKβ […]) was kindly provided by Javier […] Cancer Center, University of California-San Diego School of Medicine). Antibodies to IKKα (H-744), IKKβ (H-470), Bcl-2, Bax and AIF were purchased from Santa Cruz Biotechnology, Inc. (Santa Cruz, Calif.). […] N-acetyl-L-cysteine (NAC) and Tiron were from Sigma-Aldrich (St. Louis, Mo.). Normal human epidermal melanocytes (NHEM) were provided by the Skin Disease Research Center in Vanderbilt University School of Medicine. NHEM were cultured in 154 medium with 1× human melanocyte growth supplement (Cascade Biologicals, Inc.). The melanoma cell lines, Sk Mel5, A375 and Hs294T, originally established from human metastatic melanoma, were purchased from American Type Culture Collection and cultured in DMEM: Ham's F-12 medium containing 10% FBS, 2 mM of L-glutamine, 100 μM of MEM Non-Essential Amino Acids (Life Technologies, Inc.), and 1 mM of sodium pyruvate (Sigma Chemical Co.). Aberrant activation of NF-κB has been associated with carcinogenesis, and constitutively high IKK activity has been detected in many tumor types, including human melanoma (Yang & Richmond, 2001; […] et al., 2003; […] et al., 2003). IKK is a major regulator of the NF-κB pathway and therefore represents an attractive therapeutic target in advanced cancers. […] After three days of culture, the cell numbers were determined by hemocytometer counting (Table 1).

Hs 294T cells = experiment: as above; type: cell-based, human
From the text: as §1

A375 tumors = experiment: Melanoma tumor growth in nude mice; type: in vivo; settings: 75 mg/kg orally once daily, 21 days, vs vehicle
Hs 294T tumors = experiment: Melanoma tumor growth in nude mice; type: in vivo; settings: 75 mg/kg orally once daily, 21 days, vs vehicle
SK-Mel-5 cells [1] = experiment: Nuclear apoptosis (DNA fragmentation) by flow cytometry; type: cell-based, human; settings: for rate of apoptotic cells: 10 μM, 24 h
Description: FIGS. 4A-4H. […] Paraffin-embedded tumor tissues were subjected to H&E staining (FIGS. 4C & D) and DeadEnd Fluorometric TUNEL-assay for detection of apoptosis (FIGS. 4E & F). The TUNEL-positive cells are visualized in green fluorescence in a red (Propidium Iodide) background by fluorescence microscopy. […] After 36 h incubation, cells were collected and fixed with 1% formaldehyde and 70% ice-cold ethanol. The apoptotic cells were examined using TUNEL-assay and analyzed by flow cytometry through measuring fluorescein-12-dUTP at 520 nm. The apoptotic rate is indicated in each box. Data shown are represented one of three independent experiments. […] Cells were fixed and stained with Propidium iodide. Cell fluorescence was measured by flow cytometry and the data were analyzed using DNA content histogram deconvolution software (Multicycle from Phoenix Flow Systems). The percentage of apoptotic cells with fragmented DNA (PI intensity sub-G0/G1) is indicated at each time point. The experiments were repeated twice, in duplicates for each point (total n=4).

SK-Mel-5 cells [2] = experiment: Mitochondrial membrane potential (Δψm), DiOC6 and FACS; type: cell-based, human; settings: SK-Mel-5, 10 μM
Description: FIGS. 5A-5E. […] (FIG. 5A) Redistribution of Bcl-2 and Bax in mitochondria. […] Subcellular mitochondria and cytoplasm were prepared and subjected to Western blot analysis for Bcl-2 and Bax. (FIG. 5B) Dissipation of mitochondrial Δψm. […] After exposure, mitochondria were isolated and incubated with 80 μM 3,3′dihexyloxacarbocyanine iodide (DiOC6) at 37° C. for 15 min. Δψm was determined by FACS analysis using 484/530 nm filters within 10 min while gating the forward and sideward scatters on intact mitochondria (FIG. 5C). (FIG. 5D) Release of cytochrome-C and AIF. […] Subcellular extracts were prepared and subjected to Western blot analysis for cytochrome-C and AIF. […] The supernatant was assessed for cytochrome-c release. […]
For quantification of cell death, DNA content was analyzed on a FACScan (Becton Dickinson, San Jose, Calif.). […] Cell fluorescence was measured by flow cytometry with 488 nm excitation and 620 nm emission filters and data were analyzed using DNA content histogram deconvolution software (Multicycle, Phoenix Flow Systems). […] ROS were determined by FACS analysis with 488 nm excitation and 585 emission filters.
Mitochondria play a crucial role in the regulation of programmed cell death (Zamzami et al., 1995a; 1995b; 1996a; 1996b). […] The change in mitochondrial membrane potential (Δψm) was determined by FACS analysis after the mitochondria were stained with DiOC6.

SK-Mel-5 cells [3] = experiment: Western blot / confocal analysis of apoptotic proteins in subcellular fractions; type: cell-based, human; settings: 10 μM
Description: Subcellular mitochondria and cytoplasm were prepared and subjected to Western blot analysis for Bcl-2 and Bax. […] After exposure, mitochondria were isolated and incubated with 80 μM 3,3′dihexyloxacarbocyanine iodide (DiOC6) at 37° C. for 15 min. Δψm was determined by FACS analysis using 484/530 nm filters within 10 min while gating the forward and sideward scatters on intact mitochondria (FIG. 5C). […] Subcellular extracts were prepared and subjected to Western blot analysis for cytochrome-C and AIF. […] The supernatant was assessed for cytochrome-c release. 200 μM Ca^2+ was used as a positive control.
The cellular caspase-3 activity in samples was detected as described in Materials and Methods. […] Cells were fixed and stained with propidium iodide staining as described in FIG. 4H. The percentage of cell death was measured with flow cytometry. […] Cytosol was extracted and subjected to Western blot analysis for AIF, cytochrome-c (cyto-C) and actin. Actin was used as a loading control protein. […] Ref-1 was used as a nuclear marker protein. All data shown here were from three independent experiments. […] SK-Mel-5 cells were exposed to 10 μM BMS and/or pan-caspase inhibitor (Z-VAD-fmk, 50 μM).
Proteins from cell extracts were separated by 12% SDS-PAGE and electrophoretically transferred to nitrocellulose membranes. Nonspecific binding was blocked with 5% milk in TBST buffer (4 mM Tris base, 100 mM NaCl, pH 7.5, 0.05% Tween), incubated with the indicated primary antibodies with a dilution of 1:1000 at room temperature for 2 h or 4° C. for overnight and then with horseradish peroxidase-conjugated secondary antibody for 1 h. Blots were visualized by enhanced chemiluminescence assay.
The Mitochondria Isolation Kit (Pierce, Rockford, Ill.) was used for isolation of mitochondria from cultured melanoma cells according to the manufacture's instruction for the Reagent-based method. Briefly, cells (2×10^7) were collected, washed with PBS buffer and resuspended in 0.8 ml of Reagent A on ice for 2 min. 10 μl of Reagent B was added and samples were kept on ice, with vortexing very minute for 5 min. After addition of 0.8 ml of Reagent C, the mixture was centrifuged at 700×g for 10 min to remove the cell debris and nuclei. The supernatant was then centrifuged at 3,000×g for 15 min. The pellet (mitochondria) was washed with Reagent C. The purity of mitochondria was determined by Western blotting with β-actin, where β-actin negative preparation were fully to be pure. The supernatant (cytosolic fraction) was further cleared by centrifugation at 12,000×g for 15 min.
Cells were incubated with the anti-AIF polyclonal antibody for 2 h. Cells were washed twice and incubated with the secondary antibody conjugated with FITC for 1 h.

caspase-3 = experiment: Caspase-3 activity assay (Ac-DEVD-pNA) in cytosol extracts; type: cell-based, human
[4] = tested on: 15 other kinases including JNK, or mitogen-activated protein kinase-activated protein kinase 2; settings: cited from earlier work

Cc1ccc2nc(NCCN)c3ncc(C)n3c2c1.Cl [BMS-345541, 4(2′-aminoethyl)amino-1,8-dimethylimidazo(1,2-a)quinoxaline]
cell number after three days of culture (A375 cells; A375, 0.1 μM): 3.2 ± 0.38 10^5 | cell number after three days of culture (A375 cells; A375, 1.0 μM): 1.6 ± 0.38 10^5 | cell number after three days of culture (A375 cells; A375, 10 μM): 0.020 ± 0.01 10^5 | cell number after three days of culture (A375 cells; A375, 100 μM): 0 10^5 | cell number after three days of culture (Hs 294T cells; 0.1 μM): 1.9 ± 0.15 10^5 | cell number after three days of culture (Hs 294T cells; 1.0 μM): 2.2 ± 0.42 10^5 | cell number after three days of culture (Hs 294T cells; 10 μM): 0.013 ± 0.01 10^5 | cell number after three days of culture (Hs 294T cells; 100 μM): 0 10^5 | inhibition of tumor growth (A375 tumors): 69±11% | inhibition of tumor growth (Hs 294T tumors): 67±3.4% | rate of apoptotic cells (SK-Mel-5 cells [1]; AIF siRNA-transfected cells): 10.3±3.8% | rate of apoptotic cells (SK-Mel-5 cells [1]; control siRNA-transfected cells): 24.3±6.8% | induction of DNA fragmentation (SK-Mel-5 cells [1]; SK-Mel-5, 10 μM, 0-48 h (FIG. 4H)): time-dependent | loss of mitochondrial membrane potential (SK-Mel-5 cells [2]; 24 h): 16±1.5% | loss of mitochondrial membrane potential (SK-Mel-5 cells [2]; 48 h): 87±5.4% | time of cytochrome-c release into cytosol (SK-Mel-5 cells [3]): 14 h | time of initiation of AIF release into cytosol (SK-Mel-5 cells [3]): 4 h | release of pro-apoptotic molecules from mitochondria (SK-Mel-5 cells [3]; 24 h, Western blot): mitochondrial cytochrome-c release into the cytoplasm and AIF nuclear translocation | specific caspase-3 activity (caspase-3; SK-Mel-5, 10 μM BMS-345541, 36 h): 1.6±0.092 pmol/min/μg protein | specific caspase-3 activity (caspase-3; SK-Mel-5, 10 μM BMS-345541 in combination with 50 μM Z-VAD-fmk, 36 h): 0.44±0.035 pmol/min/μg protein | effect on 15 other kinases [4]: failing to affect

Source: patent US20060025419A1, “Imidazoquinoxaline compound for the treatment of melanoma” (priority 2004, published 2006)
